Measured values taken from paper PMC7339037 (Journal of medicinal chemistry, 2017).

Experiments:
[1] = biological target: RPA (replication protein A) (Homo sapiens, UniProt P27694); test: RPA-based EMSA; type: binding; conditions: at 10 μM
Solubility = type: physicochemical
full length human XPA = full length human XPA (Homo sapiens, UniProt P23025); test: EMSA, binding of full length human XPA to a cisplatin-modified DNA
full length human XPA, sequence (P23025 whole entry): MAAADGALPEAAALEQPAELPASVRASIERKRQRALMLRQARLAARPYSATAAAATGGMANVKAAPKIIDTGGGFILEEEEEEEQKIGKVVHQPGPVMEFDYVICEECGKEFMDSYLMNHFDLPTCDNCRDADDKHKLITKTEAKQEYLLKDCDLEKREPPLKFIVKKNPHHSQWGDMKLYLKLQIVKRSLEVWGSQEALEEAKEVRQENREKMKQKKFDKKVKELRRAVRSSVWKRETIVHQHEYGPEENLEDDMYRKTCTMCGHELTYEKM

RPA (replication protein A), sequence (P27694 whole entry): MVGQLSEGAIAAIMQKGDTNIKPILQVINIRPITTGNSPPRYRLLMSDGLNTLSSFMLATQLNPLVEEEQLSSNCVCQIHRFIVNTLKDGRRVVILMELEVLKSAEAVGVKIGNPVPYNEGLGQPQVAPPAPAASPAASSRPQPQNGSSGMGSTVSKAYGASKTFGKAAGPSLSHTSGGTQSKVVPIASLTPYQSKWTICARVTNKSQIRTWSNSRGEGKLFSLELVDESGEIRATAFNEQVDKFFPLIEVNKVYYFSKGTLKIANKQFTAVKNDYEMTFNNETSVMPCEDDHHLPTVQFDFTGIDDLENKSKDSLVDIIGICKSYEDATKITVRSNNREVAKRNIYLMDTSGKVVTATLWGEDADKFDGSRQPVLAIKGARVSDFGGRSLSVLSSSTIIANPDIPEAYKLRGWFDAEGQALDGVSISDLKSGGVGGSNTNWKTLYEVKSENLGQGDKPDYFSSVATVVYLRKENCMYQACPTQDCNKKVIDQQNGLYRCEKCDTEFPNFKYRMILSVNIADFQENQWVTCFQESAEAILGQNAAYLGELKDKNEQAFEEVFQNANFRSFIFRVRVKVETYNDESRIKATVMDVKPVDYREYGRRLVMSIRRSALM

Compound	RPA inhibition [1]	solubility (in words) (Solubility)	XPA inhibitory activity (in words) (full length human XPA)
CC1=NN(c2ccc(Cl)c(C(=O)O)c2)C(=O)/C1=C\c1ccc(-c2ccc(Cl)c(C(=O)OCc3ccccc3)c2)o1 [Compound 22]	no RPA inhibition	poor solubility	
CC1=NN(c2ccc(Cl)c(C(=O)O)c2)C(=O)/C1=C\c1ccc(-c2ccc(Cl)c(C(=O)OCc3ccccc3Cl)c2)o1 [Compound 24]	no RPA inhibition	poor solubility	
CCOC(=O)c1cccc(N2N=C(C)/C(=C/c3ccc(-c4ccc(Cl)c(C(=O)NCc5ccc(F)cc5)c4)o3)C2=O)c1 [Compound 33a, (Z)-Ethyl 3-(4-((5-(4-Chloro-3-((4-fluorobenzyl)carbamoyl)phenyl)furan-2-yl)-methylene)-3-methyl-5-oxo-4,5-dihydro-1H-pyrazol-1-yl)benzoate]			dramatically decreased or almost no XPA inhibitory activity
CC1=NN(c2cccc(C(=O)O)c2)C(=O)/C1=C\c1ccc(-c2ccc(Cl)c(C(=O)NCc3ccc(F)cc3)c2)o1 [Compound 34a, (Z)-3-(4-((5-(4-Chloro-3-((4-fluorobenzyl)carbamoyl)phenyl)furan-2-yl)methylene)-3-methyl-5-oxo-4,5-dihydro-1H-pyrazol-1-yl)-benzoic Acid]		dramatically increased solubility	
CC1=NN(c2cccc(C(=O)NCC3CC3)c2)C(=O)/C1=C\c1ccc(-c2ccc(Cl)c(C(=O)NCC3CC3)c2)o1 [Compound 34e, (Z)-2-Chloro-N-(cyclopropylmethyl)-5-(5-((1-(3-((cyclopropylmethyl)carbamoyl)phenyl)-3-methyl-5-oxo-1H-pyrazol-4(5H)-ylidene)methyl)furan-2-yl)-benzamide]			dramatically decreased or almost no XPA inhibitory activity
CC1=NN(c2ccc(C(=O)O)cc2)C(=O)/C1=C\c1ccc(-c2ccc(Cl)c(C(=O)NCc3ccc(F)cc3)c2)o1 [Compound 34i, (Z)-4-(4-((5-(4-Chloro-3-((4-fluorobenzyl)carbamoyl)phenyl)-furan-2-yl)methylene)-3-methyl-5-oxo-4,5-dihydro-1H-pyrazol-1-yl)benzoic Acid]	no RPA inhibition		
CC1=NN(c2ccc(C(=O)O)cc2)C(=O)/C1=C\c1ccc(-c2ccc(Cl)c(C(=O)NCC3CC3)c2)o1 [Compound 34k, (Z)-4-(4-((5-(4-Chloro-3-((cyclopropylmethyl)carbamoyl)phenyl)-furan-2-yl)methylene)-3-methyl-5-oxo-4,5-dihydro-1H-pyrazol-1-yl)benzoic Acid]	no RPA inhibition		
CC1=NN(c2cccc(C(=O)O)c2)C(=O)/C1=C\c1ccc(-c2ccc(C(=O)NCc3ccc(F)cc3)cc2)o1 [Compound 39a, (Z)-3-(4-((5-(4-((4-Fluorobenzyl)carbamoyl)phenyl)furan-2-yl)-methylene)-3-methyl-5-oxo-4,5-dihydro-1H-pyrazol-1-yl)benzoic Acid]			no XPA inhibitory activity
CC1=NN(c2cccc(C(=O)O)c2)C(=O)/C1=C\c1ccc(-c2ccc(C(=O)NCC3CC3)cc2)o1 [Compound 39b, (Z)-3-(4-((5-(4-((Cyclopropylmethyl)carbamoyl)phenyl)furan-2-yl)methylene)-3-methyl-5-oxo-4,5-dihydro-1H-pyrazol-1-yl)benzoic Acid]			no XPA inhibitory activity
